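Grown in 96-well plates, cells were treated for 48 hours with each compound at five concentrations. Insufficient inhibition: endpoint recorded as highest concentration tested. Abbreviation: GI50, concentration required for 50% inhibition of growth. TGI: total growth inhibition.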
Key:
Test in all cases: NCI anticancer screen, dose series, 48 h
MALME-3M melanoma = tested on: MALME-3M melanoma
MDA-MB-231 breast = tested on: MDA-MB-231 breast
BT-549 breast = tested on: BT-549 breast
M14 melanoma = tested on: M14 melanoma
HL-60(TB) leukemia = tested on: HL-60(TB) leukemia
HCT-116 colon = tested on: HCT-116 colon
SK-MEL-5 melanoma = tested on: SK-MEL-5 melanoma
HOP-92 NSCLC = tested on: HOP-92 NSCLC
KM12 colon = tested on: KM12 colon
UACC-257 melanoma = tested on: UACC-257 melanoma
OVCAR-4 ovarian = tested on: OVCAR-4 ovarian
OVCAR-5 ovarian = tested on: OVCAR-5 ovarian
UACC-62 melanoma = tested on: UACC-62 melanoma
SK-MEL-28 melanoma = tested on: SK-MEL-28 melanoma
MOLT-4 leukemia = tested on: MOLT-4 leukemia
HT29 colon = tested on: HT29 colon
HCT-15 colon = tested on: HCT-15 colon
786-0 renal = tested on: 786-0 renal
SR leukemia = tested on: SR leukemia
A498 renal = tested on: A498 renal
HOP-62 NSCLC = tested on: HOP-62 NSCLC
MDA-MB-435 = tested on: MDA-MB-435
RXF 393 renal = tested on: RXF 393 renal
A549 NSCLC = tested on: A549 NSCLC
EKVX NSCLC = tested on: EKVX NSCLC
T-47D breast = tested on: T-47D breast
U251 CNS = tested on: U251 CNS
TK-10 renal = tested on: TK-10 renal
SF-539 CNS = tested on: SF-539 CNS
IGROV1 ovarian = tested on: IGROV1 ovarian
SK-MEL-2 melanoma = tested on: SK-MEL-2 melanoma
NCI/ADR-RES ovarian = tested on: NCI/ADR-RES ovarian
NCI-H23 lung = tested on: NCI-H23 lung
SK-OV-3 ovarian = tested on: SK-OV-3 ovarian
COLO 205 colon = tested on: COLO 205 colon
HS 578T breast = tested on: HS 578T breast
CCRF-CEM leukemia = tested on: CCRF-CEM leukemia
K-562 leukemia = tested on: K-562 leukemia
SW-620 colon = tested on: SW-620 colon
NCI-H460 lung = tested on: NCI-H460 lung
SNB-19 CNS = tested on: SNB-19 CNS
HCC-2998 colon = tested on: HCC-2998 colon
CAKI-1 renal = tested on: CAKI-1 renal
SF-295 CNS = tested on: SF-295 CNS
LOX IMVI melanoma = tested on: LOX IMVI melanoma
DU-145 prostate = tested on: DU-145 prostate
ACHN renal = tested on: ACHN renal
OVCAR-3 ovarian = tested on: OVCAR-3 ovarian
NCI-H226 lung = tested on: NCI-H226 lung
UO-31 renal = tested on: UO-31 renal
SF-268 CNS = tested on: SF-268 CNS
PC-3 prostate = tested on: PC-3 prostate
MCF7 breast = tested on: MCF7 breast
OVCAR-8 ovarian = tested on: OVCAR-8 ovarian
SNB-75 CNS = tested on: SNB-75 CNS
SN12C renal = tested on: SN12C renal
NCI-H522 lung = tested on: NCI-H522 lung
RPMI-8226 leukemia = tested on: RPMI-8226 leukemia

Structure (SMILES): CS(=O)(=O)c1nccc(-c2c(-c3cccc(OCc4ccccc4)c3)nc3sccn23)n1
- GI50 (MALME-3M melanoma): 16.4 µM
- TGI (MALME-3M melanoma): > 100 µM
- GI50 (MDA-MB-231 breast): 16.2 µM
- TGI (MDA-MB-231 breast): > 100 µM
- GI50 (BT-549 breast): 11.6 µM
- TGI (BT-549 breast): > 100 µM
- GI50 (M14 melanoma): 13.9 µM
- TGI (M14 melanoma): > 100 µM
- GI50 (HL-60(TB) leukemia): 3.97 µM
- TGI (HL-60(TB) leukemia): 27 µM
- GI50 (HCT-116 colon): 7.16 µM
- TGI (HCT-116 colon): > 100 µM
- GI50 (SK-MEL-5 melanoma): 1.39 µM
- TGI (SK-MEL-5 melanoma): 10 µM
- GI50 (HOP-92 NSCLC): 6.38 µM
- TGI (HOP-92 NSCLC): > 100 µM
- GI50 (KM12 colon): 4.64 µM
- TGI (KM12 colon): 9.98 µM
- GI50 (UACC-257 melanoma): 10.4 µM
- TGI (UACC-257 melanoma): 32.5 µM
- GI50 (OVCAR-4 ovarian): 9.97 µM
- TGI (OVCAR-4 ovarian): > 100 µM
- GI50 (OVCAR-5 ovarian): > 100 µM
- TGI (OVCAR-5 ovarian): > 100 µM
- GI50 (UACC-62 melanoma): 13.8 µM
- TGI (UACC-62 melanoma): > 100 µM
- GI50 (SK-MEL-28 melanoma): 12.2 µM
- TGI (SK-MEL-28 melanoma): > 100 µM
- GI50 (MOLT-4 leukemia): 1.64 µM
- TGI (MOLT-4 leukemia): > 100 µM
- GI50 (HT29 colon): > 41.2 µM
- TGI (HT29 colon): > 100 µM
- GI50 (HCT-15 colon): 12 µM
- TGI (HCT-15 colon): > 100 µM
- GI50 (786-0 renal): 12.9 µM
- TGI (786-0 renal): > 100 µM
- GI50 (SR leukemia): 4.49 µM
- TGI (SR leukemia): > 100 µM
- GI50 (A498 renal): 13.5 µM
- TGI (A498 renal): > 89.9 µM
- GI50 (HOP-62 NSCLC): > 80.9 µM
- TGI (HOP-62 NSCLC): > 100 µM
- GI50 (MDA-MB-435): 13.3 µM
- TGI (MDA-MB-435): > 100 µM
- GI50 (RXF 393 renal): 15.3 µM
- TGI (RXF 393 renal): > 100 µM
- GI50 (A549 NSCLC): > 71.1 µM
- TGI (A549 NSCLC): > 100 µM
- GI50 (EKVX NSCLC): 26.4 µM
- TGI (EKVX NSCLC): > 100 µM
- GI50 (T-47D breast): 11.7 µM
- TGI (T-47D breast): > 100 µM
- GI50 (U251 CNS): 19.6 µM
- TGI (U251 CNS): > 100 µM
- GI50 (TK-10 renal): 53.2 µM
- TGI (TK-10 renal): > 100 µM
- GI50 (SF-539 CNS): > 60.4 µM
- TGI (SF-539 CNS): > 100 µM
- GI50 (IGROV1 ovarian): 10.3 µM
- TGI (IGROV1 ovarian): > 100 µM
- GI50 (SK-MEL-2 melanoma): > 100 µM
- TGI (SK-MEL-2 melanoma): > 100 µM
- GI50 (NCI/ADR-RES ovarian): 20.3 µM
- TGI (NCI/ADR-RES ovarian): > 100 µM
- GI50 (NCI-H23 lung): 12.8 µM
- TGI (NCI-H23 lung): > 100 µM
- GI50 (SK-OV-3 ovarian): 23.3 µM
- TGI (SK-OV-3 ovarian): > 100 µM
- GI50 (COLO 205 colon): 25.3 µM
- TGI (COLO 205 colon): > 100 µM
- GI50 (HS 578T breast): 12.9 µM
- TGI (HS 578T breast): > 100 µM
- GI50 (CCRF-CEM leukemia): > 30.1 µM
- TGI (CCRF-CEM leukemia): > 100 µM
- GI50 (K-562 leukemia): 5.29 µM
- TGI (K-562 leukemia): > 100 µM
- GI50 (SW-620 colon): 4.67 µM
- TGI (SW-620 colon): > 100 µM
- GI50 (NCI-H460 lung): > 83.5 µM
- TGI (NCI-H460 lung): > 100 µM
- GI50 (SNB-19 CNS): > 43.8 µM
- TGI (SNB-19 CNS): > 100 µM
- GI50 (HCC-2998 colon): 3.49 µM
- TGI (HCC-2998 colon): 8.36 µM
- GI50 (CAKI-1 renal): 4.58 µM
- TGI (CAKI-1 renal): > 100 µM
- GI50 (SF-295 CNS): > 100 µM
- TGI (SF-295 CNS): > 100 µM
- GI50 (LOX IMVI melanoma): 5.13 µM
- TGI (LOX IMVI melanoma): > 100 µM
- GI50 (DU-145 prostate): 1.76 µM
- TGI (DU-145 prostate): 3.31 µM
- GI50 (ACHN renal): 36.4 µM
- TGI (ACHN renal): > 100 µM
- GI50 (OVCAR-3 ovarian): 14.4 µM
- TGI (OVCAR-3 ovarian): > 100 µM
- GI50 (NCI-H226 lung): 12.1 µM
- TGI (NCI-H226 lung): > 100 µM
- GI50 (UO-31 renal): 21.2 µM
- TGI (UO-31 renal): 78 µM
- GI50 (SF-268 CNS): 19.1 µM
- TGI (SF-268 CNS): > 100 µM
- GI50 (PC-3 prostate): 6.35 µM
- TGI (PC-3 prostate): > 26.8 µM
- GI50 (MCF7 breast): 7.31 µM
- TGI (MCF7 breast): > 100 µM
- GI50 (OVCAR-8 ovarian): > 27.4 µM
- TGI (OVCAR-8 ovarian): > 100 µM
- GI50 (SNB-75 CNS): > 28.5 µM
- TGI (SNB-75 CNS): > 100 µM
- GI50 (SN12C renal): 26.2 µM
- TGI (SN12C renal): > 100 µM
- GI50 (NCI-H522 lung): 9.12 µM
- TGI (NCI-H522 lung): > 100 µM
- GI50 (RPMI-8226 leukemia): 9.24 µM
- TGI (RPMI-8226 leukemia): > 32.3 µM
